Assay results from patent publication US20170253607A1, “LONG-ACTING HIV PROTEASE INHIBITOR” (Shionogi & Co., Ltd., priority 2014, published 2017).

molecular target: HIV-1 PR (Human immunodeficiency virus type 1 group M subtype B, UniProt P04585); test: HIV-protease inhibitory activity assay (FRET peptide substrate); type: biochemical; conditions: Test Example 1
Summary of the method: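 Inhibition of HIV-1 protease was measured as loss of fluorescence dequenching of a HiLyte Fluor 488/QXL 520 peptide at 2 μmol/L, pH 4.8, room temperature, 60 minute reaction. IC50 was derived by nonlinear four-parameter fitting.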

| Structure (SMILES) | IC50 |
| --- | --- |
| COc1ccc(S(=O)(=O)N(CC(C)C)CC(O)C(Cc2ccc(NCc3ccccc3-c3ccsc3C(=O)O)cc2)NC(=O)OC2COC3(C)OCCC23)cc1 (stereo not shown) [Compound I-498] | 1.83 nM |
| CC(C)CN(CC(O)C(Cc1ccc(OCCOc2ccc(-c3ccc(F)cc3F)cc2C(=O)O)cc1)NC(=O)OC1COC2OCCC12)S(=O)(=O)c1ccc2ncsc2c1 (stereo not shown) [Compound I-814] | 0.75 nM |
| CC1(C)CCc2sc(-c3cccnc3COc3ccc(CC(NC(=O)OC4COC5(C)OCCC45)C(O)CN(CC4CCCC4)S(=O)(=O)c4ccc5c(c4)CCO5)cc3)c(C(=O)O)c2C1 (stereo not shown) [Compound I-189] | 2.53 nM |
| COc1ccc(S(=O)(=O)N(CC(C)C)C[C@@H](O)[C@H](Cc2ccc(OCc3ccccc3-c3sc(-c4ccccc4)nc3C(=O)O)cc2)NC(=O)O[C@H]2CO[C@H]3OCC[C@H]32)cc1 [Compound I-3] | 1.02 nM |
| COc1ccc(S(=O)(=O)N(CC(C)C)CC(O)C(Cc2ccc(N3CC(Oc4cc5ccccc5cc4C(=O)Nc4sc5c(c4C(=O)O)CC(C)(C)CC5)C3)cc2)NC(=O)OC2COC3(C)OCCC23)cc1 (stereo not shown) [Compound I-671] | 34.8 nM |
| COc1ccc(S(=O)(=O)N(CC(C)C)CC(O)C(Cc2ccc(NCc3c(-c4sc5c(c4C(=O)O)CC(C)(C)CC5)ccc(F)c3F)cc2)NC(=O)OC2COC3(C)OCCC23)cc1 (stereo not shown) [Compound I-279] | 1.6 nM |
| COc1ccc(S(=O)(=O)N(CC(C)C)CC(O)C(Cc2ccc(N(C)c3cccc(-c4sc5c(c4C(=O)O)CC(C)(C)CC5)c3)cc2)NC(=O)OC2COC3(C)OCCC23)cc1 (stereo not shown) [Compound I-479] | 2.49 nM |
| COc1ccc(S(=O)(=O)N(CC(C)C)CC(O)C(Cc2ccc(N(Cc3ccccc3-c3sc4c(c3C(=O)O)CC(C)(C)CC4)C(C)=O)cc2)NC(=O)OC2COC3(C)OCCC23)cc1 (stereo not shown) [Compound I-339] | 1.83 nM |
| COc1ccc(S(=O)(=O)N(CC(C)C)CC(O)C(Cc2ccc(Nc3ccc(-c4sc5c(c4C(=O)O)CC(C)(C)CC5)cc3)cc2)NC(=O)OC2COC3(C)OCCC23)cc1 (stereo not shown) [Compound I-468] | 5.6 nM |
| COc1ccc(S(=O)(=O)N(CC(C)C)CC(O)C(Cc2ccc(N(C)Cc3nc(N4CCCC4)ccc3-c3sc4c(c3C(=O)O)CC(C)(C)CC4)cc2)NC(=O)OC2COC3(C)OCCC23)cc1 (stereo not shown) [Compound I-755] | 2.69 nM |
| CCN(Cc1ccccc1C(=O)Nc1sc2c(c1C(=O)O)CC(C)(C)CC2)c1ccc(CC(NC(=O)OC2COC3(C)OCCC23)C(O)CN(CC(C)C)S(=O)(=O)c2ccc(OC)cc2)cc1 (stereo not shown) [Compound I-669] | 8.54 nM |
| COc1ccc(S(=O)(=O)N(CC(C)C)CC(O)C(Cc2ccc(NCc3ccc(C(=O)N(C)C)cc3-c3sc4c(c3C(=O)O)CC(C)(C)CC4)cc2)NC(=O)OC2COC3(C)OCCC23)cc1 (stereo not shown) [Compound I-417] | 1.64 nM |
| COc1ccc(S(=O)(=O)N(CC(C)C)CC(O)C(Cc2ccc(OCc3ccccc3-c3sccc3C(=O)O)cc2)NC(=O)OC2COC3(C)OCCC23)cc1 (stereo not shown) [Compound I-97] | 0.82 nM |
| COc1ccc(S(=O)(=O)N(CC(C)C)CC(O)C(Cc2ccc(N(C)Cc3cccnc3-c3sc4c(c3C(=O)O)CC(C)(C)CC4)cc2)NC(=O)OC2COC3(C)OCCC23)cc1 (stereo not shown) [Compound I-129] | 3.09 nM |
| COc1ccc(S(=O)(=O)N(CC(C)C)CC(O)C(Cc2ccc(N3CCC(c4ccccc4-c4sc5c(c4C(=O)O)CC(C)(C)CC5)C3)cc2)NC(=O)OC2COC3(C)OCCC23)cc1 (stereo not shown) [Compound I-523] | 9.44 nM |
| CC(C)CN(CC(O)C(Cc1ccc(NCc2ccccc2C(=O)Nc2sc3c(c2C(=O)O)CC(C)(C)CC3)cc1)NC(=O)OC1COC2(C)OCCC12)S(=O)(=O)c1ccc2ncsc2c1 (stereo not shown) [Compound I-592] | 3.19 nM |
| COc1ccc(S(=O)(=O)N(CC(C)C)CC(O)C(Cc2ccc(N(C)CC3CCCCC3C(=O)Nc3sc4c(c3C(=O)O)CC(C)(C)CC4)cc2)NC(=O)OC2COC3(C)OCCC23)cc1 (stereo not shown) [Compound I-622] | 3.71 nM |
| COc1ccc(S(=O)(=O)N(CC(C)C)CC(O)C(Cc2ccc(NCc3cc(-c4sc5c(c4C(=O)O)CC(C)(C)CC5)ccc3OC)cc2)NC(=O)OC2COC3(C)OCCC23)cc1 (stereo not shown) [Compound I-281] | 2.95 nM |
| COc1ccc(S(=O)(=O)N(CC(C)C)CC(O)C(Cc2ccc(NCc3ccc(C#N)cc3-c3sc4c(c3C(=O)O)CC(C)(C)CC4)cc2)NC(=O)OC2COC3(C)OCCC23)cc1 (stereo not shown) [Compound I-565] | 1.75 nM |
| CNC(=O)c1ccc(CNc2ccc(CC(NC(=O)OC3COC4(C)OCCC34)C(O)CN(CC(C)C)S(=O)(=O)c3ccc(OC)cc3)cc2)c(-c2sc3c(c2C(=O)O)CC(C)(C)CC3)c1 (stereo not shown) [Compound I-416] | 1.63 nM |
| COc1ccc(S(=O)(=O)N(CC(C)C)CC(O)C(Cc2ccc(NCc3ccccc3-c3c(C(=O)O)cnc4ccsc34)cc2)NC(=O)OC2COC3(C)OCCC23)cc1 (stereo not shown) [Compound I-501] | 1.82 nM |
| COc1ccc(S(=O)(=O)N(CC(C)C)CC(O)C(Cc2ccc(N(C)Cc3cc(Cl)ccc3C(=O)Nc3sc4c(c3C(=O)O)CC(C)(C)CC4)cc2)NC(=O)OC2COC3(C)OCCC23)cc1 (stereo not shown) [Compound I-658] | 13.7 nM |
| COc1ccc(S(=O)(=O)N(CC(C)C)CC(O)C(Cc2ccc(OCC3CCCN3c3ccc(C#N)cc3-c3sc4c(c3C(=O)O)CC(C)(C)CC4)cc2)NC(=O)OC2COC3(C)OCCC23)cc1 (stereo not shown) [Compound I-333] | 11 nM |

| Structure (SMILES) | IC50 |
| --- | --- |
| COc1ccc(S(=O)(=O)N(CC(C)C)CC(O)C(Cc2ccc(OCc3cnn(-c4ccccc4)c3-c3sc4c(c3C(=O)O)CC(C)(C)CC4)cc2)NC(=O)OC2COC3(C)OCCC23)cc1 (stereo not shown) [Compound I-185] | 1.71 nM |
| COc1ccc(S(=O)(=O)N(CC(C)C)CC(O)C(Cc2ccc(NCc3ccc(C(=O)O)cc3)cc2)NC(=O)OC2COC3(C)OCCC23)cc1 (stereo not shown) [Compound I-316] | 1.85 nM |
| COc1ccc(S(=O)(=O)N(CC(C)C)CC(O)C(Cc2ccc(NCc3ccccc3-c3ccc(-c4sc5c(c4C(=O)O)CC(C)(C)CC5)nc3)cc2)NC(=O)OC2COC3(C)OCCC23)cc1 (stereo not shown) [Compound I-713] | 1.69 nM |
| COc1ccc(S(=O)(=O)N(CC(C)C)CC(O)C(Cc2ccc(-n3cccc3)cc2)NC(=O)OC2COC3(C)OCCC23)cc1 (stereo not shown) [Compound I-521] | 2.84 nM |
| COc1ccc(S(=O)(=O)N(CC(C)C)CC(O)C(Cc2ccc(NCc3ccc(C(=O)Nc4sc5c(c4C(=O)O)CC(C)(C)CC5)o3)cc2)NC(=O)OC2COC3(C)OCCC23)cc1 (stereo not shown) [Compound I-438] | 2.55 nM |
| CC(C)CN(CC(O)C(Cc1ccc(OC(C(=O)O)c2ccc(-c3ccc(F)cc3F)cc2)cc1)NC(=O)OC1COC2(C)OCCC12)S(=O)(=O)c1ccc2ncsc2c1 (stereo not shown) [Compound I-154] | 1.87 nM |
| COc1ccc(S(=O)(=O)N(CC(C)C)CC(O)C(Cc2ccc(CN3CCc4c(cccc4-c4sc5c(c4C(=O)O)CC(C)(C)CC5)C3)cc2)NC(=O)OC2COC3(C)OCCC23)cc1 (stereo not shown) [Compound I-388] | 1.53 nM |
| COc1ccc(S(=O)(=O)N(CC(C)C)CC(O)C(Cc2ccc(COC3CCCN3c3ccccc3-c3sc4c(c3C(=O)O)CC(C)(C)CC4)cc2)NC(=O)OC2COC3(C)OCCC23)cc1 (stereo not shown) [Compound I-103] | 3.75 nM |
| COc1ccc(S(=O)(=O)N(CC(C)C)CC(O)C(Cc2ccc(OCc3cc(Cc4ccc(F)cc4)cnc3C(=O)O)cc2)NC(=O)OC2COC3(C)OCCC23)cc1 (stereo not shown) [Compound I-308] | 1.91 nM |
| COc1ccc(S(=O)(=O)N(CC(C)C)CC(O)C(Cc2ccc(OCC3CCCN(c4ccc(C#N)cc4-c4sc5c(c4C(=O)O)CC(C)(C)CC5)C3)cc2)NC(=O)OC2COC3(C)OCCC23)cc1 (stereo not shown) [Compound I-328] | 12.8 nM |
| COc1ccc(S(=O)(=O)N(CC(C)C)CC(O)C(Cc2ccc(N(C)CC3=C(c4sc5c(c4C(=O)O)CC(C)(C)CC5)COC3)cc2)NC(=O)OC2COC3(C)OCCC23)cc1 (stereo not shown) [Compound I-569] | 2.22 nM |
| COc1ccc(S(=O)(=O)N(CC(C)C)CC(O)C(Cc2ccc(OCCNC(=O)c3cc(C)cc(C)c3O)cc2)NC(=O)OC2COC3(C)OCCC23)cc1 (stereo not shown) [Compound I-171] | 0.94 nM |
| COc1ccc(S(=O)(=O)N(CC(C)C)CC(O)C(Cc2ccc(-c3ccc(-c4sc5c(c4C(=O)O)CC(C)(C)CC5)cc3)cc2)NC(=O)OC2COC3(C)OCCC23)cc1 (stereo not shown) [Compound I-183] | 2.39 nM |
| COc1ccc(S(=O)(=O)N(CC(C)C)CC(O)C(Cc2ccc(N(C)Cc3nc(N(C4CCCCC4)C4CCCCC4)sc3-c3sc4c(c3C(=O)O)CC(C)(C)CC4)cc2)NC(=O)OC2COC3(C)OCCC23)cc1 (stereo not shown) [Compound I-761] | 6.76 nM |
| CC(C)CN(CC(O)C(Cc1ccc(OCc2ccc3ccccc3c2C(N)=O)cc1)NC(=O)OC1COC2(C)OCCC12)S(=O)(=O)c1ccc2ncsc2c1 (stereo not shown) [Compound I-162] | 0.96 nM |
| CC(C)CN(CC(O)C(Cc1ccc(OCc2ccc(C(=O)O)cc2-c2ccc(F)cc2F)cc1)NC(=O)OC1COC2(C)OCCC12)S(=O)(=O)c1ccc2ncsc2c1 (stereo not shown) [Compound I-150] | 0.93 nM |
| COc1ccc(S(=O)(=O)N(CC(C)C)CC(O)C(Cc2ccc(N(C)CC3CCCCC3C(=O)Nc3sc4c(c3C(=O)O)CC(C)(C)CC4)cc2)NC(=O)OC2COC3(C)OCCC23)cc1 (stereo not shown) [Compound I-616] | 4.2 nM |
| COc1ccc(S(=O)(=O)N(CC(C)C)CC(O)C(Cc2ccc(NCc3ccccc3-c3c(C(=O)O)[nH]c4ccccc34)cc2)NC(=O)OC2COC3(C)OCCC23)cc1 (stereo not shown) [Compound I-660] | 2.12 nM |
| COc1ccc(S(=O)(=O)N(CC(C)C)CC(O)C(Cc2ccc(-c3sccc3C(=O)O)cc2)NC(=O)OC2COC3(C)OCCC23)cc1 (stereo not shown) [Compound I-108] | 1.12 nM |
| COC(=O)NC(C(=O)NC(Cc1ccccc1)C(O)CN(Cc1ccc(-c2ccc(-c3sc4c(c3C(=O)O)CC(C)(C)CC4)cc2)cc1)NC(=O)C(NC(=O)OC)C(C)(C)C)C(C)(C)C (stereo not shown) [Compound I-900] | 2.9 nM |
| COc1ccc(S(=O)(=O)N(CC(C)C)CC(O)C(Cc2ccc(N(C)Cc3cccc(-c4sc5c(c4C(=O)O)CC(C)(C)CC5)n3)cc2)NC(=O)OC2COC3(C)OCCC23)cc1 (stereo not shown) [Compound I-494] | 1.46 nM |
| COc1ccc(S(=O)(=O)N(CC(C)C)CC(O)C(Cc2ccc(OCc3csc(-c4sc5c(c4C(=O)O)CC(C)(C)CC5)n3)cc2)NC(=O)OC2COC3(C)OCCC23)cc1 (stereo not shown) [Compound I-87] | 1.32 nM |
| COc1ccc(S(=O)(=O)N(CC(C)C)CC(O)C(Cc2ccc(OCc3ncsc3-c3sc4c(c3C(=O)O)CC(C)(C)CC4)cc2)NC(=O)OC2COC3OCCC23)cc1 (stereo not shown) [Compound I-828] | 0.96 nM |
